The assay addresses Complement C3 (Homo sapiens, UniProt P01024). Description: Inhibitory concentration for human complement component C3 activation.

Each structure is given as a SMILES string. pIC50: −log10 of the molar value. Where only a bound is given, the exact number is not on record here.

Complement C3, sequence (P01024 23-667 limits assumed): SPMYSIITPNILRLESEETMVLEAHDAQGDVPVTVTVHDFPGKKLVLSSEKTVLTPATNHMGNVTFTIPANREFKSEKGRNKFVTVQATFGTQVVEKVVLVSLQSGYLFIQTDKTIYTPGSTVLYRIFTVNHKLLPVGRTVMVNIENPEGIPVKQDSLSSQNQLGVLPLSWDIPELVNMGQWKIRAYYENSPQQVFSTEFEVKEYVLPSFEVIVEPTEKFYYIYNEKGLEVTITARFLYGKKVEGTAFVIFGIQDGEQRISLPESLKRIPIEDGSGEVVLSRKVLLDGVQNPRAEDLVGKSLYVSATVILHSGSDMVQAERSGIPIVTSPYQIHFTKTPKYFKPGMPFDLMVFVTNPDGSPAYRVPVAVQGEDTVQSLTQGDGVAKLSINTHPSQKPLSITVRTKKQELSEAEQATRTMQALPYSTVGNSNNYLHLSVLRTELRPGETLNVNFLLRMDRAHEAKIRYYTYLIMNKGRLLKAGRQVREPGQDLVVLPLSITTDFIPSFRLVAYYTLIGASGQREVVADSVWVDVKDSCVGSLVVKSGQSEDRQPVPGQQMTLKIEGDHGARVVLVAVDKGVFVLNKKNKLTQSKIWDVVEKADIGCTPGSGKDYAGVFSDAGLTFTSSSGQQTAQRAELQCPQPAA
Complement C3, sequence (P01024 672-1663 limits assumed): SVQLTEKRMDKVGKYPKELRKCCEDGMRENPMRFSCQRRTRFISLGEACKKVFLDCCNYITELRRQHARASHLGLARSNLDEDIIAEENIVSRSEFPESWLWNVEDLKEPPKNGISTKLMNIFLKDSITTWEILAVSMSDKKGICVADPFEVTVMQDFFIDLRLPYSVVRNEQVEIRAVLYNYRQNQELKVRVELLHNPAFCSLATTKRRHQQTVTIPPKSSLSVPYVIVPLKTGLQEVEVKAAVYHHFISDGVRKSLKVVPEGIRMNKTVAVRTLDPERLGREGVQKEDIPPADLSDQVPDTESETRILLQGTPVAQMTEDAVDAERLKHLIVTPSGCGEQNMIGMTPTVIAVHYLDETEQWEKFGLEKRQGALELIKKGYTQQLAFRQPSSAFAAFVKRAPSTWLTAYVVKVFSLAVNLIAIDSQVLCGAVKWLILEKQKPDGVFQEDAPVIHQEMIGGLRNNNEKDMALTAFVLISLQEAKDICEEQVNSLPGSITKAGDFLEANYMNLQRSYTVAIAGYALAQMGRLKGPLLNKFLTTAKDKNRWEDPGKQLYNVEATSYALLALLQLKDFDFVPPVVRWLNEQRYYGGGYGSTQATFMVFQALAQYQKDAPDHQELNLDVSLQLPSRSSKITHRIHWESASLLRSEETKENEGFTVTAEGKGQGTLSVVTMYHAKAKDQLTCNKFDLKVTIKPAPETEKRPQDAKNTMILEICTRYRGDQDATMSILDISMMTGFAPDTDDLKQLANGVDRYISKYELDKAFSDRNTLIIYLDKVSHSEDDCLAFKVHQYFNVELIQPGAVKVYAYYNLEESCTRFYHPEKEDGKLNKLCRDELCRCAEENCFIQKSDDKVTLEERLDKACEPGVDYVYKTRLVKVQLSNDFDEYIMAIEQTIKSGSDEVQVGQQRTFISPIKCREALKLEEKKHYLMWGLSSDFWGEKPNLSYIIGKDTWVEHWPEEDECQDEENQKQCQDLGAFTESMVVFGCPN

As a reminder, the pIC50 is the negative decadic logarithm of the IC50, by convention in mol/L. The compound `CC[C@H](C)[C@H](NC(C)=O)C(=O)N[C@H]1CSSC[C@@H](C(=O)N[C@H](C(=O)O)[C@@H](C)O)NC(=O)[C@H](CCCN=C(N)N)NC(=O)[C@H](Cc2c[nH]cn2)NC(=O)[C@H](C)NC(=O)CNC(=O)[C@H](Cc2c[nH]c3ccccc23)NC(=O)[C@H](CC(=O)O)NC(=O)[C@H](CCC(N)=O)NC(=O)[C@H](Cc2ccc(C(=O)c3ccccc3)cc2)NC(=O)[C@H](C(C)C)NC1=O` had a pIC50 of 5.96.
With `CC[C@H](C)[C@H](NC(C)=O)C(=O)N[C@H]1CSSC[C@@H](C(=O)N[C@H](C(=O)O)[C@@H](C)O)NC(=O)[C@H](CCCN=C(N)N)NC(=O)[C@H](Cc2c[nH]cn2)NC(=O)[C@H](C)NC(=O)CNC(=O)[C@H](Cc2c[nH]c3ccccc23)NC(=O)[C@H](CC(=O)O)NC(=O)[C@H](CCC(N)=O)NC(=O)[C@H](Cc2cccc3ccccc23)NC(=O)[C@H](C(C)C)NC1=O` the figure was 5.74; with `CC[C@H](C)[C@H](NC(C)=O)C(=O)N[C@H]1CSSC[C@@H](C(=O)N[C@H](C(N)=O)[C@@H](C)O)NC(=O)[C@H](CCCN=C(N)N)NC(=O)[C@H](Cc2c[nH]cn2)NC(=O)[C@H](Cc2c[nH]cn2)NC(=O)CNC(=O)[C@H](Cc2c[nH]c3ccccc23)NC(=O)[C@H](CC(=O)O)NC(=O)[C@H](CCC(N)=O)NC(=O)[C@H](Cc2ccccc2)NC(=O)[C@H](C(C)C)NC1=O`, 4.99; with `CC[C@H](C)[C@H](NC(=O)[C@@H]1CSSC[C@H](NC(=O)[C@@H](NC(C)=O)[C@@H](C)CC)C(=O)N[C@@H](C(C)C)C(=O)N[C@@H](Cc2ccc(OP(=O)(O)O)cc2)C(=O)N[C@@H](CCC(N)=O)C(=O)N[C@@H](CC(=O)O)C(=O)N[C@@H](Cc2c[nH]c3ccccc23)C(=O)NCC(=O)N[C@@H](C)C(=O)N[C@@H](Cc2c[nH]cn2)C(=O)N[C@@H](CCCN=C(N)N)C(=O)N1)C(N)=O`, 5.02.
With `CC[C@H](C)[C@H](NC(C)=O)C(=O)N[C@H]1CSSC[C@@H](C(=O)N[C@H](C(N)=O)[C@@H](C)O)NC(=O)[C@H](CCCN=C(N)N)NC(=O)[C@H](Cc2c[nH]cn2)NC(=O)[C@H](C)NC(=O)CNC(=O)[C@H](Cc2c[nH]c3ccccc23)NC(=O)[C@H](CC(=O)O)NC(=O)[C@H](CCC(N)=O)NC(=O)[C@H](Cc2ccc(O)cc2)NC(=O)[C@H](C(C)C)NC1=O` the figure was 5.42; with `CC[C@H](C)[C@H](NC(C)=O)C(=O)N[C@H]1CSSC[C@@H](C(=O)N[C@H](C(N)=O)[C@@H](C)O)NC(=O)[C@H](CCCNC(=N)N)NC(=O)[C@H](Cc2cnc[nH]2)NC(=O)[C@H](C)NC(=O)CNC(=O)[C@H](Cc2c[nH]c3ccccc23)NC(=O)[C@H](CC(=O)O)NC(=O)[C@H](CCC(N)=O)NC(=O)[C@H](C(C)C)NC(=O)[C@H](C(C)C)NC1=O`, 4.91; with `CC[C@H](C)[C@H](NC(C)=O)C(=O)N[C@H]1CSSC[C@@H](C(=O)N[C@H](C(=O)O)[C@@H](C)O)NC(=O)[C@H](CCCN=C(N)N)NC(=O)[C@H](Cc2c[nH]cn2)NC(=O)[C@H](C)NC(=O)CNC(=O)[C@H](Cc2c[nH]c3ccccc23)NC(=O)[C@H](CC(=O)O)NC(=O)[C@H](CCC(N)=O)NC(=O)[C@H](Cc2csc3ccccc23)NC(=O)[C@H](C(C)C)NC1=O`, 6.10.
With `CC[C@H](C)[C@H](NC(C)=O)C(=O)N[C@H]1CSSC[C@@H](C(=O)N[C@H](C(N)=O)[C@@H](C)O)NC(=O)[C@H](CCCNC(=N)N)NC(=O)[C@H](Cc2c[nH]cn2)NC(=O)[C@H](Cc2c[nH]cn2)NC(=O)CNC(=O)[C@H](Cc2c[nH]c3ccccc23)NC(=O)[C@H](CC(=O)O)NC(=O)[C@H](CCC(N)=O)NC(=O)[C@H](C(C)C)NC(=O)[C@H](C(C)C)NC1=O` the figure was 4.49.
In turn, `CC[C@H](C)[C@H](NC(=O)[C@@H]1CSSC[C@H](NC(=O)[C@@H](NC(C)=O)[C@@H](C)CC)C(=O)N[C@@H](C(C)C)C(=O)N[C@H](Cc2c[nH]c3ccccc23)C(=O)N[C@@H](CCC(N)=O)C(=O)N[C@@H](CC(=O)O)C(=O)N[C@@H](Cc2c[nH]c3ccccc23)C(=O)NCC(=O)N[C@@H](C)C(=O)N[C@@H](Cc2c[nH]cn2)C(=O)N[C@@H](CCCN=C(N)N)C(=O)N1)C(N)=O` gave a negative-log IC50 (pIC50) of under 3.00.
Regarding `CC[C@H](C)[C@H](NC(C)=O)C(=O)N[C@H]1CSSC[C@@H](C(=O)N[C@H](C(N)=O)[C@@H](C)O)NC(=O)[C@H](CCCNC(=N)N)NC(=O)[C@H](Cc2cnc[nH]2)NC(=O)[C@H](Cc2cnc[nH]2)NC(=O)CNC(=O)[C@H](Cc2c[nH]c3ccccc23)NC(=O)[C@H](CC(=O)O)NC(=O)[C@H](CCC(N)=O)NC(=O)[C@H](Cc2c[nH]c3ccccc23)NC(=O)[C@H](C(C)C)NC1=O`, the negative logarithm of the IC50 (pIC50) is 5.66.
`CC[C@H](C)[C@H](NC(C)=O)C(=O)N[C@H]1CSSC[C@@H](C(=O)N[C@H](C(N)=O)[C@@H](C)O)NC(=O)[C@H](CCCNC(=N)N)NC(=O)[C@H](Cc2cnc[nH]2)NC(=O)[C@H](Cc2cnc[nH]2)NC(=O)CNC(=O)[C@H](Cc2c[nH]c3ccccc23)NC(=O)[C@H](CC(=O)O)NC(=O)[C@H](CCC(N)=O)NC(=O)[C@H]([C@@H](C)O)NC(=O)[C@H](C(C)C)NC1=O` showed a pIC50 of 4.17.
Turning to `CC[C@H](C)[C@H](NC(C)=O)C(=O)N[C@H]1CSSC[C@@H](C(=O)N[C@H](C(N)=O)[C@@H](C)O)NC(=O)[C@H](CCCNC(=N)N)NC(=O)[C@H](Cc2cnc[nH]2)NC(=O)[C@H](Cc2c[nH]c3ccccc23)NC(=O)CNC(=O)[C@H](Cc2c[nH]c3ccccc23)NC(=O)[C@H](CC(=O)O)NC(=O)[C@H](CCC(N)=O)NC(=O)[C@H](Cc2c[nH]c3ccccc23)NC(=O)[C@H](C(C)C)NC1=O`, the pIC50 is 5.51.
The figure for `CC[C@H](C)[C@H](NC(C)=O)C(=O)N[C@H]1CSSC[C@@H](C(=O)N[C@H](C(N)=O)[C@@H](C)O)NC(=O)[C@H](CCCN=C(N)N)NC(=O)[C@H](Cc2c[nH]cn2)NC(=O)[C@H](Cc2c[nH]cn2)NC(=O)CNC(=O)[C@H](Cc2c[nH]c3ccccc23)NC(=O)[C@H](CC(=O)O)NC(=O)[C@H](CCC(N)=O)NC(=O)[C@H](CO)NC(=O)[C@H](C(C)C)NC1=O` is 4.29; for `CC[C@H](C)[C@H](NC(C)=O)C(=O)N[C@H]1CSSC[C@@H](C(=O)N[C@H](C(N)=O)[C@@H](C)O)NC(=O)[C@H](CCCNC(=N)N)NC(=O)[C@H](Cc2c[nH]cn2)NC(=O)[C@H](C)NC(=O)CNC(=O)[C@H](Cc2c[nH]c3ccccc23)NC(=O)[C@H](CC(=O)O)NC(=O)[C@H](CCC(N)=O)NC(=O)[C@H](Cc2ccc3ccccc3c2)NC(=O)[C@H](C(C)C)NC1=O` it is 6.30.
With `CC[C@H](C)[C@H](NC(C)=O)C(=O)N[C@H]1CSSC[C@@H](C(=O)N[C@H](C(N)=O)[C@@H](C)O)NC(=O)[C@H](CCCNC(=N)N)NC(=O)[C@H](Cc2cnc[nH]2)NC(=O)[C@H](Cc2cnc[nH]2)NC(=O)CNC(=O)[C@H](Cc2c[nH]c3ccccc23)NC(=O)[C@H](CC(=O)O)NC(=O)[C@H](CCC(N)=O)NC(=O)[C@H](Cc2cnc[nH]2)NC(=O)[C@H](C(C)C)NC1=O` the figure was 4.98; with `CC[C@H](C)[C@H](NC(C)=O)C(=O)N[C@H]1CSSC[C@@H](C(=O)N[C@H](C(N)=O)[C@@H](C)O)NC(=O)[C@H](CCCNC(=N)N)NC(=O)[C@H](Cc2cnc[nH]2)NC(=O)[C@H](C)NC(=O)CNC(=O)[C@H](Cc2c[nH]c3ccccc23)NC(=O)[C@H](CC(=O)O)NC(=O)[C@H](CCC(N)=O)NC(=O)[C@H](Cc2ccc(C(=O)c3ccccc3)cc2)NC(=O)[C@H](C(C)C)NC1=O`, 6.22.
As to `CC[C@H](C)[C@H](NC(C)=O)C(=O)N[C@H]1CSSC[C@@H](C(=O)N[C@H](C(=O)O)[C@@H](C)O)NC(=O)[C@H](CCCNC(=N)N)NC(=O)[C@H](Cc2cnc[nH]2)NC(=O)[C@H](C)NC(=O)CNC(=O)[C@H](Cc2c[nH]c3ccccc23)NC(=O)[C@H](CC(=O)O)NC(=O)[C@H](CCC(N)=O)NC(=O)[C@H](Cc2ccc3ccccc3c2)NC(=O)[C@H](C(C)C)NC1=O`, the negative-log IC50 (pIC50) is 5.85.
The figure for `CC[C@H](C)[C@H](NC(C)=O)C(=O)N[C@H]1CSSC[C@@H](C(=O)N[C@H](C(N)=O)[C@@H](C)O)NC(=O)[C@H](CCCN=C(N)N)NC(=O)[C@H](Cc2c[nH]cn2)NC(=O)[C@H](C)NC(=O)CNC(=O)[C@H](Cc2c[nH]c3ccccc23)NC(=O)[C@H](CC(=O)O)NC(=O)[C@H](CCC(N)=O)NC(=O)[C@H](C2Cc3ccccc3C2)NC(=O)[C@H](C(C)C)NC1=O` is 5.85; for `CC[C@H](C)[C@H](NC(C)=O)C(=O)N[C@H]1CSSC[C@@H](C(=O)N[C@H](C(=O)O)[C@@H](C)O)NC(=O)[C@H](CCCN=C(N)N)NC(=O)[C@H](Cc2c[nH]cn2)NC(=O)[C@H](C)NC(=O)CNC(=O)[C@H](Cc2c[nH]c3ccccc23)NC(=O)[C@H](CC(=O)O)NC(=O)[C@H](CCC(N)=O)NC(=O)[C@H](CC2CNc3ccccc32)NC(=O)[C@H](C(C)C)NC1=O` (stereo partly drawn) it is 4.99.
With `CC[C@H](C)[C@H](NC(C)=O)C(=O)N[C@H]1CSSC[C@@H](C(=O)N[C@H](C(=O)O)[C@@H](C)O)NC(=O)[C@H](CCCN=C(N)N)NC(=O)[C@H](Cc2c[nH]cn2)NC(=O)[C@H](C)NC(=O)CNC(=O)[C@H](Cc2c[nH]c3ccccc23)NC(=O)[C@H](CC(=O)O)NC(=O)[C@H](CCC(N)=O)NC(=O)[C@H](CC2CCCCC2)NC(=O)[C@H](C(C)C)NC1=O` the figure was 4.32; with `CC[C@H](C)[C@H](NC(=O)[C@@H]1CSSC[C@H](NC(=O)[C@@H](NC(C)=O)[C@@H](C)CC)C(=O)N[C@@H](C(C)C)C(=O)N[C@H](Cc2ccc(O)cc2)C(=O)N[C@@H](CCC(N)=O)C(=O)N[C@@H](CC(=O)O)C(=O)N[C@@H](Cc2c[nH]c3ccccc23)C(=O)NCC(=O)N[C@@H](C)C(=O)N[C@@H](Cc2c[nH]cn2)C(=O)N[C@@H](CCCN=C(N)N)C(=O)N1)C(N)=O`, under 3.00; with `CC[C@H](C)[C@H](NC(C)=O)C(=O)N[C@H]1CSSC[C@@H](C(=O)N[C@H](C(N)=O)[C@@H](C)O)NC(=O)[C@H](CCCN=C(N)N)NC(=O)[C@H](Cc2c[nH]cn2)NC(=O)[C@H](C)NC(=O)CNC(=O)[C@H](Cc2c[nH]c3ccccc23)NC(=O)[C@H](CC(=O)O)NC(=O)[C@H](CCC(N)=O)NC(=O)[C@H](Cc2csc3ccccc23)NC(=O)[C@H](C(C)C)NC1=O`, 6.10.
As to `CC[C@H](C)[C@H](NC(C)=O)C(=O)N[C@H]1CSSC[C@@H](C(=O)N[C@H](C(=O)O)[C@@H](C)O)NC(=O)[C@H](CCCNC(=N)N)NC(=O)[C@H](Cc2cnc[nH]2)NC(=O)[C@H](C)NC(=O)CNC(=O)[C@H](Cc2c[nH]c3ccccc23)NC(=O)[C@H](CC(=O)O)NC(=O)[C@H](CCC(N)=O)NC(=O)[C@H](C2Cc3ccccc3C2)NC(=O)[C@H](C(C)C)NC1=O`, the pIC50 was 5.82.

For the origin of these results see ChEMBL document CHEMBL1139489, “Design and NMR characterization of active analogues of compstatin containing non-natural amino acids” (J Med Chem, 2005).
